Assay results reported in paper PMC2593902, “Regulation of cyclic AMP response-element binding-protein (CREB) by Gq/11-protein-coupled receptors in human SH-SY5Y neuroblastoma cells” (Biochemical Pharmacology, 2008).

Target: T1, M3 muscarinic acetylcholine (mACh) receptor (Homo sapiens, UniProt P20309)
T1 construct: gene CHRM3
Test: Fura-2 Ca2+ mobilization in SH-SY5Y cells endogenously expressing the receptor (also Ins([…])P3 and phospho-CREB)
Format: cell-based

T1 sequence (P20309 whole entry): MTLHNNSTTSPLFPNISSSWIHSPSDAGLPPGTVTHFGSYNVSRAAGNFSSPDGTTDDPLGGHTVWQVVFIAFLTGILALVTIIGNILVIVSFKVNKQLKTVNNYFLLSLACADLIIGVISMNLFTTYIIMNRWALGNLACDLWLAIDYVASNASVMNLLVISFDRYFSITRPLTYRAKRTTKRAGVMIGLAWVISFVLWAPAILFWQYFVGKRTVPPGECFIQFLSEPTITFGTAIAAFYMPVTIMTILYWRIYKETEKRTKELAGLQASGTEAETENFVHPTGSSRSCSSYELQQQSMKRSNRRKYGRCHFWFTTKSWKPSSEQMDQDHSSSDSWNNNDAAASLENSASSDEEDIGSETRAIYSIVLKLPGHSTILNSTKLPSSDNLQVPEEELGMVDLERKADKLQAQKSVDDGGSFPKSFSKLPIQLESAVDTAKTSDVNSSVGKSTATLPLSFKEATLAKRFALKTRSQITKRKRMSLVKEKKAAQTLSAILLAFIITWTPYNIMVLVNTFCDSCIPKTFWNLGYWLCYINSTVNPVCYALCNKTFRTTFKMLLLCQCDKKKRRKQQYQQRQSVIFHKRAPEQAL

EC50: 800 nM
Compound: CC(=O)OC(C)C[N+](C)(C)C (stereo not shown) [MCh, methacholine]
